Results: ChEMBL document CHEMBL5696442, “Discovery of type II inhibitors of TGFβ-activated kinase 1 (TAK1) and mitogen-activated protein kinase kinase kinase kinase 2 (MAP4K2)” (J Med Chem, 2015)
Calls of active or inactive are those of the source. No cut-off for these calls is given here.

Experiments:
[1] = biological target: Tyrosine-protein kinase Yes (Homo sapiens) (UniProt P07947); experiment: Inhibition of YES ACT labeling site in human Huh-7 cell lysate at 1 uM by KiNativ Profiling analysis relative to control; format: subcellular
Chain of Tyrosine-protein kinase Yes (Homo sapiens) (P07947 2-543 limits assumed): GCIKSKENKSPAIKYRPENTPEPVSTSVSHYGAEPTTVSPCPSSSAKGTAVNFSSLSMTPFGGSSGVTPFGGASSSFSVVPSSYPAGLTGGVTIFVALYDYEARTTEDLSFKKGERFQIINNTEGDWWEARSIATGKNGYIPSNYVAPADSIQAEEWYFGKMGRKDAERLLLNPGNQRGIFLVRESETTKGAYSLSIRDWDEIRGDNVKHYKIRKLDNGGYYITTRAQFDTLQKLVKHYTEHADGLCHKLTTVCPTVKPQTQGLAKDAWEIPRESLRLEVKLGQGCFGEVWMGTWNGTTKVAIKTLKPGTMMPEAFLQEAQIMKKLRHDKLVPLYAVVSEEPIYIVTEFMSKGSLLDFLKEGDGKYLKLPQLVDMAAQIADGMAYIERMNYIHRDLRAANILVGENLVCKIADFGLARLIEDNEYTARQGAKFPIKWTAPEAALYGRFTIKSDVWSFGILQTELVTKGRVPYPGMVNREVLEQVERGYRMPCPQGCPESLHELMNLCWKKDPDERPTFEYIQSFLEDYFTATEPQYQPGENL

[2] = biological target: Ribosomal protein S6 kinase alpha-3 (Homo sapiens) (UniProt P51812); experiment: Inhibition of RSK2 domain2 ACT labeling site in human Huh-7 cell lysate at 1 uM by KiNativ Profiling analysis relative to control; format: subcellular
Chain of Ribosomal protein S6 kinase alpha-3 (Homo sapiens) (P51812 whole entry, the tested form may be a part): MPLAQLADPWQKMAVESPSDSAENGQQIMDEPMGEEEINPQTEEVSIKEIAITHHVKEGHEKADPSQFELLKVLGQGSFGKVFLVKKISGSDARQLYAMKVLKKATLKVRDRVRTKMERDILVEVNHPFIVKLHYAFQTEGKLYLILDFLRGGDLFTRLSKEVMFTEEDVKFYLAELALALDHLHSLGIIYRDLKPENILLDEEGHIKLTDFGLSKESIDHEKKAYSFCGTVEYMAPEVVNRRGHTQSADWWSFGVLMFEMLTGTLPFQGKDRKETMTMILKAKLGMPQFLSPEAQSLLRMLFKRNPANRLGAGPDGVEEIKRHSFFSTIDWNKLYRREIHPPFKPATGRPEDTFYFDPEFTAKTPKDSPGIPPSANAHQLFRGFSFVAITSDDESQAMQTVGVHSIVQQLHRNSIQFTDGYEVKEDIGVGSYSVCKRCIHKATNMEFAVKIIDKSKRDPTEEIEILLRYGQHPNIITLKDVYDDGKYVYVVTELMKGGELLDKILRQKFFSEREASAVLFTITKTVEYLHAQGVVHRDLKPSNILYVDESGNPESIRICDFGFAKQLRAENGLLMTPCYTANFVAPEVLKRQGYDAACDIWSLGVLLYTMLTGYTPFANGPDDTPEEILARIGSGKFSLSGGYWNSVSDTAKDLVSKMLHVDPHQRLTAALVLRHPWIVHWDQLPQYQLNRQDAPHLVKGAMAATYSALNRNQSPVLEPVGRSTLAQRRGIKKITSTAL

[3] = biological target: T1, Serine/threonine-protein kinase greatwall (Homo sapiens) (UniProt Q96GX5); experiment: Inhibition of MASTL Lys2 labeling site in human Huh-7 cells at 1 uM by KiNativ Profiling analysis relative to control; format: cell-based
T1 sequence (whole entry): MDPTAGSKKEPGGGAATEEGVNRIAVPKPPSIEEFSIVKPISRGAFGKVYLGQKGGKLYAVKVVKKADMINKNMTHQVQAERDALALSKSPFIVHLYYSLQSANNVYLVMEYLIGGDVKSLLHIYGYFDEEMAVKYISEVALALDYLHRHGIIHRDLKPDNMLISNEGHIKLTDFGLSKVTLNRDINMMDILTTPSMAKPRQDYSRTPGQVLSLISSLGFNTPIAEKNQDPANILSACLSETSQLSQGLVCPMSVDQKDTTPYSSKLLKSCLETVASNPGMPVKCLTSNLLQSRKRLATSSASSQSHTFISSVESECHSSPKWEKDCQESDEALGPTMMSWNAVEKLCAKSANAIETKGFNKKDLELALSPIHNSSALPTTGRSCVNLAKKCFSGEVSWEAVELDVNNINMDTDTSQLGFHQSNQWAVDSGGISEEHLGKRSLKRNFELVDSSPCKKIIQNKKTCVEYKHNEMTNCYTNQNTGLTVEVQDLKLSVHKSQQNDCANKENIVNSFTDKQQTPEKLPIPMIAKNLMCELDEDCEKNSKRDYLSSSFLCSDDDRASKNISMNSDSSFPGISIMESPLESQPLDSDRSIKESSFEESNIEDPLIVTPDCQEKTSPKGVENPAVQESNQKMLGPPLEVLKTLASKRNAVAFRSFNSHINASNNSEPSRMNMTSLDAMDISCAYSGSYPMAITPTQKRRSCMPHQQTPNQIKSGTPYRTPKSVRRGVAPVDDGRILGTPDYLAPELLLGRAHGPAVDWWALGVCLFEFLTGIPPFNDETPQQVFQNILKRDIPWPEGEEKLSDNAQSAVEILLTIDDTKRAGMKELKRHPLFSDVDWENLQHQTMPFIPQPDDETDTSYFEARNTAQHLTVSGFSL

[4] = biological target: 5'-AMP-activated protein kinase catalytic subunit alpha-1 (Homo sapiens) (UniProt Q13131); experiment: Inhibition of AMPKa1 Lys2 labeling site in human A-375 cells at 5 uM by KiNativ Profiling analysis relative to control; format: cell-based
Chain of 5'-AMP-activated protein kinase catalytic subunit alpha-1 (Homo sapiens) (Q13131 whole entry, looked up): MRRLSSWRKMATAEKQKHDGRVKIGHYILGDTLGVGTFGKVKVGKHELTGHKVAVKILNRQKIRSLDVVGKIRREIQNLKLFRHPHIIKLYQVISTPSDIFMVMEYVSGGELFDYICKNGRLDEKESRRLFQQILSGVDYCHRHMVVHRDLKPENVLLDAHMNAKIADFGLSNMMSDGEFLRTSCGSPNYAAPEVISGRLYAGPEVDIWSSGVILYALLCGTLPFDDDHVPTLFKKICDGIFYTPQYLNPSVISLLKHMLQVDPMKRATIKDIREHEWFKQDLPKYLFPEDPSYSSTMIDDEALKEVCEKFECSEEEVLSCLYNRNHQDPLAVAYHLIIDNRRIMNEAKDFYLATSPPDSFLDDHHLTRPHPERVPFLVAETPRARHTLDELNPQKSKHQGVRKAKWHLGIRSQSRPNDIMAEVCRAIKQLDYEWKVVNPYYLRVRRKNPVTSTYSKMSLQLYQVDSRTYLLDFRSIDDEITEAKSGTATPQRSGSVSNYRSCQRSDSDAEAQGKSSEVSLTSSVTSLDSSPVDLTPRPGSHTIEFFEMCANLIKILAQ

[5] = biological target: T2, Serine/threonine-protein kinase D1 (Homo sapiens) (UniProt Q15139); experiment: Inhibition of PRKD1 (unknown origin) at 10 uM by Ambit Kinomescan binding assay
T2 sequence (whole entry): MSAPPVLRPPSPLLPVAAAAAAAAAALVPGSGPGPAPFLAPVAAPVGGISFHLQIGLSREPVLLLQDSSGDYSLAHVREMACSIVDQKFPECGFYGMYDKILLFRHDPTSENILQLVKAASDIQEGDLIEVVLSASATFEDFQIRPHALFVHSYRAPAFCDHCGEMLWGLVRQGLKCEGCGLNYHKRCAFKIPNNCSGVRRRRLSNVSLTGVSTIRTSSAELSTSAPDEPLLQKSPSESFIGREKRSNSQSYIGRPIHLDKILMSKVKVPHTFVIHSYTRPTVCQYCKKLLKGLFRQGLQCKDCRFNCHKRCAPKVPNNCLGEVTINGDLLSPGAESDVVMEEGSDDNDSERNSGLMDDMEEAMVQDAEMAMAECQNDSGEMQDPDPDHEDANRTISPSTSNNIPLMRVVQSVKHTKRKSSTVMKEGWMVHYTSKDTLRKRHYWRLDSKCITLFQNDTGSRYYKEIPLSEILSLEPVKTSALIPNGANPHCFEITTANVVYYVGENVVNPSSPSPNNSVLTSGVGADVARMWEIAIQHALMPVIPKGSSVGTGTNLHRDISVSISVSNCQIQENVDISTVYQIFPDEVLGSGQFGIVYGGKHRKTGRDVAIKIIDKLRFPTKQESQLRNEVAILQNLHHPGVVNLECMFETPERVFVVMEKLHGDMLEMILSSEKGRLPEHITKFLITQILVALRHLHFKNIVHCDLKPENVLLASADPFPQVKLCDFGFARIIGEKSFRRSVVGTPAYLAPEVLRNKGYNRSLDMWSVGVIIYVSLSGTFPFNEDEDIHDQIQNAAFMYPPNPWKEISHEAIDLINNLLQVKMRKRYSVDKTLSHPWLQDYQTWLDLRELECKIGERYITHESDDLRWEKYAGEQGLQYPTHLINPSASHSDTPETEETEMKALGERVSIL

[6] = biological target: Tyrosine-protein kinase ABL2 (Homo sapiens, UniProt P42684); experiment: Inhibition of ARG ACT labeling site in human A-375 cells at 0.05 uM by KiNativ Profiling analysis relative to control; format: cell-based
Chain of Tyrosine-protein kinase ABL2 (P42684 whole entry): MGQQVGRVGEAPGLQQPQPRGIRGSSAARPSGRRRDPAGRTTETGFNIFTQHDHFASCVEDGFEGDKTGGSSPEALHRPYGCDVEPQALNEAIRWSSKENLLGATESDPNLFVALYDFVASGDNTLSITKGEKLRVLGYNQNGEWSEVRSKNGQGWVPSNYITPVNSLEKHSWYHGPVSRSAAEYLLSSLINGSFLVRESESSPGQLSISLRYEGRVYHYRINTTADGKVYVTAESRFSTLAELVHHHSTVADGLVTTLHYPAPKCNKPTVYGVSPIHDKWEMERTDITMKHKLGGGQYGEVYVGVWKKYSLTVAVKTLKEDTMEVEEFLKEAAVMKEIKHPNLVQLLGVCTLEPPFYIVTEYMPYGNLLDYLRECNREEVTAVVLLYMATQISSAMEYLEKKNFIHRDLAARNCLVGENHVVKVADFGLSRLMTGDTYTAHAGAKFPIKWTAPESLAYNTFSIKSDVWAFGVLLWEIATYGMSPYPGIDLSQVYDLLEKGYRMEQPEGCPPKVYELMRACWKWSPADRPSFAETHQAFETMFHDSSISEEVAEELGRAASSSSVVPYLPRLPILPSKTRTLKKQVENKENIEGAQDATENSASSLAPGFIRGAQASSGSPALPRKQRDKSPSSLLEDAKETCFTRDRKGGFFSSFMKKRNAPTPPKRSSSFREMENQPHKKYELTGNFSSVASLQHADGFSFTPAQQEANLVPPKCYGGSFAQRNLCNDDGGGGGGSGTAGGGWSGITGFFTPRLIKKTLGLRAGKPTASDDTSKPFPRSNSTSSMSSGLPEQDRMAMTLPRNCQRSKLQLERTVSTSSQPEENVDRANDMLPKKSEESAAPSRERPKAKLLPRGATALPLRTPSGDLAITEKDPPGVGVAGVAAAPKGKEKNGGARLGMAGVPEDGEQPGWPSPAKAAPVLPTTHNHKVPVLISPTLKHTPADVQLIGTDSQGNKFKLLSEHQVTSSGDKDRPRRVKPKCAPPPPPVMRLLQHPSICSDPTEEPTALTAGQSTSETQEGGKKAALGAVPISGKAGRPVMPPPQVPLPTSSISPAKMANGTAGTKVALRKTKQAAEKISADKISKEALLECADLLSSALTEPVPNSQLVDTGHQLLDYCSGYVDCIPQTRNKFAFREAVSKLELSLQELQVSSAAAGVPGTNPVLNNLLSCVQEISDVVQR

[7] = biological target: T3, Mitogen-activated protein kinase kinase kinase 3 (Homo sapiens) (UniProt Q99759); experiment: Inhibition of MAP3K3 Lys2 labeling site in human A-375 cells at 0.05 uM by KiNativ Profiling analysis relative to control; format: cell-based
T3 sequence (whole entry): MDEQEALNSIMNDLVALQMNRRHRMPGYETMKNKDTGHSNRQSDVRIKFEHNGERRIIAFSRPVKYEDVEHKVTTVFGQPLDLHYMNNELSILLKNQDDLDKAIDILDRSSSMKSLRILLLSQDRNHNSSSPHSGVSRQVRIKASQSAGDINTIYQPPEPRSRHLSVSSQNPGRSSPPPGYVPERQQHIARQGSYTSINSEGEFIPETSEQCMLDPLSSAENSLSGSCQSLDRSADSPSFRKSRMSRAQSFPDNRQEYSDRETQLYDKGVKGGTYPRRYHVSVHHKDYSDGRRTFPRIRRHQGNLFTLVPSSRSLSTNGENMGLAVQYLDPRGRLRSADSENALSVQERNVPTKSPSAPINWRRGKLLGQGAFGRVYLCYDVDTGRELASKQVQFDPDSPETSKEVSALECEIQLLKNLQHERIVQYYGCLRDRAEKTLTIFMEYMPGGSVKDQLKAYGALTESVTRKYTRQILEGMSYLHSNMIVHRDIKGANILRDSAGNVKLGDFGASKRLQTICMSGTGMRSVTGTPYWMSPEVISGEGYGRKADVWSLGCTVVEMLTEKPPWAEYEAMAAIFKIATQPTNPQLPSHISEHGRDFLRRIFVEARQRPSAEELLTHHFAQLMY

## CNc1cc(Oc2cc(C(=O)Nc3cc(N4CCN(C)CC4)cc(C(F)(F)F)c3)ccc2C)ncn1
[1]
  inhibition: 22%
[2]
  inhibition: 1.9%
[3]
  inhibition: -7.3%

## CCN1CCN(Cc2ccc(NC(=O)c3ccc(C)c(/C=C/c4cnc5[nH]ccc5c4OC)c3)cc2C(F)(F)F)CC1
[4]
  inhibition: 18.5%

## CCN1CCN(Cc2ccc(NC(=O)c3ccc(C)c(Oc4ccnc5[nH]ccc45)c3)cc2C(F)(F)F)CC1
[5]
  inhibition: inactive
[6]
  inhibition: 88.5%
[7]
  inhibition: 7.6%
